Laboratory results from US20260191783A1, “DRUG DELIVERY FORMULATIONS” (The Regents of the University of California, priority 2018, published 2026).
Each block holds one molecule with its values, some of them ahead of it.

How the values were obtained:
[1] = format: physicochemical
Description: Oxidized porous silicon microparticles were prepared using a similar method to those used for segesterone acetate melt casting described elsewhere (75% porosity, 800° C. oxidation). […] Once molten, the LNG-CHOL mixture was left to infiltrate the porous silica materials for 5 minutes before cooling to room temperature. The oxidized porous silicon material containing LNG-CHOL was then recovered and ground into microparticles using a mortar and pestle. The loaded oxidized porous silicon particles were then evaluated for their release kinetics in 1×PBS (pH 7.4) at 37° C. Approximately 2 mg of LNG-PSi were placed in a glass vial containing 3.5 mL of 1×PBS and placed in a 37° C. incubator on a moving platform to induce mild agitation of the solution. 3 mL of the PBS was removed every 24 hours and replaced with fresh solution. The extracted supernatant was then analyzed for LNG content by high performance liquid chromatography (HPLC).

androgen receptor = target: T1, androgen receptor (Homo sapiens, UniProt P10275); settings: cited from earlier work
T1 sequence (P10275 1-920): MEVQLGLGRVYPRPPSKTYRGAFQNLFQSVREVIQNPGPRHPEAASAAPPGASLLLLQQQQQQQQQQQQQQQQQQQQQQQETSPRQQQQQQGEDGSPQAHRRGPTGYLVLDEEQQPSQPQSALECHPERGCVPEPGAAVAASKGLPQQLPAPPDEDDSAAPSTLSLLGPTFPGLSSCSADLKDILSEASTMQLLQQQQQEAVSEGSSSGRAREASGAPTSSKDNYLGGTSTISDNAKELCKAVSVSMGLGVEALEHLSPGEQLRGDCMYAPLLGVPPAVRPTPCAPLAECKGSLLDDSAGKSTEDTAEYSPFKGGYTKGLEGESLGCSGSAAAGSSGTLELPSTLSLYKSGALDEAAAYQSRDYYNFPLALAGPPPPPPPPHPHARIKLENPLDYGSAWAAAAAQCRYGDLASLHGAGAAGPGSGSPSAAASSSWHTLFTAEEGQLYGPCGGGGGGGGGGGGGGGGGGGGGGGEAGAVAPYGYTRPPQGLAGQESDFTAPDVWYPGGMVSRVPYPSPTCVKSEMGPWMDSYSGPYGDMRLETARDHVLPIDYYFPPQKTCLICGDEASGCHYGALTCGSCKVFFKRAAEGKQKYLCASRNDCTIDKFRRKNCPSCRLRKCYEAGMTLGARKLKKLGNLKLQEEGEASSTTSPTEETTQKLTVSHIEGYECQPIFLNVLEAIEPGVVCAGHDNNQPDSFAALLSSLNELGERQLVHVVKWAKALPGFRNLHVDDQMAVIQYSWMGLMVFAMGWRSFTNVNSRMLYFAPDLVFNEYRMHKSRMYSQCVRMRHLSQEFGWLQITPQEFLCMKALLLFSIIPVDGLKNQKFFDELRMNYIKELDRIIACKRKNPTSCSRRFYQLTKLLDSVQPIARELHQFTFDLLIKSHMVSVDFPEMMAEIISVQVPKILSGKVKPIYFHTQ

estrogen receptor = target: T2, estrogen receptor (Homo sapiens, UniProt P03372); settings: cited from earlier work
T2 sequence (P03372 1-595): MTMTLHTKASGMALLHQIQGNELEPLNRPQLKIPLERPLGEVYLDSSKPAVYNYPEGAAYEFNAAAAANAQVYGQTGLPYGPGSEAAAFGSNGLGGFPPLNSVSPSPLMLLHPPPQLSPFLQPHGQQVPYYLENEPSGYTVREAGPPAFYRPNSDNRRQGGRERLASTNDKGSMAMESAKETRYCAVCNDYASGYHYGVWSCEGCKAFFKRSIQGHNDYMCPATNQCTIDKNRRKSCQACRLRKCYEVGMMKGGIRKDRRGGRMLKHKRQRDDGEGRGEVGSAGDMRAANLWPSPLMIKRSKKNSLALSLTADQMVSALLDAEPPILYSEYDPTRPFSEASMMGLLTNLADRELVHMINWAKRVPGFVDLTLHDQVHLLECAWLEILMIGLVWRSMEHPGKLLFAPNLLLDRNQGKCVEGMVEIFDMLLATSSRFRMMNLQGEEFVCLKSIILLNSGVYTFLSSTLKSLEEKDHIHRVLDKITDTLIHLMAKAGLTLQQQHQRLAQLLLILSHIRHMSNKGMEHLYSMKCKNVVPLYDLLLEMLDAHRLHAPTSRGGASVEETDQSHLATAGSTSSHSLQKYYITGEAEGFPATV

[2] = In vitro dissolution / segesterone acetate release in 1x PBS; format: physicochemical; settings: 1x PBS pH 7.4, 37° C., mild agitation, starting SEG 0.4 mg/mL
Description: Modulation of Segesterone Acetate Release Profile. Three main particle parameters were investigated as to their effect on the release of loaded SEG: particle oxidation temperature, drug loading, and particle porosity. Unless otherwise mentioned, the baseline particle formulation used was 55% porosity, oxidized at 800° C. and had segesterone acetate loading of 70% weight/weight. Drug release was modeled by in vitro dissolution in 1× phosphate buffered saline (pH 7.4) under mild agitation at 37° C. For all studies, starting segesterone acetate concentration was kept constant at 0.4 mg/mL based on the percent loading of the given formulation. […] Segesterone acetate concentrations were evaluated by HPLC with absorbance measurements at 254 nm.

[3] = Serum segesterone acetate by HPLC-MS/MS after subcutaneous injection; settings: rat, 50 mg/kg SEG

Compound: C#C[C@]1(OC(=O)CCC)CC[C@H]2[C@@H]3CCC4=CC(=O)CC[C@@H]4[C@H]3CC[C@@]21CC [Levonorgestrel Butanoate]
Tdegradeable (STA under nitrogen flow): 230 °C
Window [Tdegradeable − Tmelt] (difference between melting and degradation temperatures, STA under nitrogen flow): 26 °C

chemical alteration or degradation by the melt casting process [1]: not chemically altered or degraded
temperature at which the drug began to lose mass (oxygen atmosphere, heating rate 10° C.): approximately 233 °C
Compound: C#C[C@]1(O)CC[C@H]2[C@@H]3CCC4=CC(=O)CC[C@@H]4[C@H]3CC[C@@]21CC [Levonorgestrel]

duration of segesterone acetate release / time to full clearance from the test chamber ([2]; listed as crystalline segesterone acetate controls): 40 days
duration of segesterone acetate release / time to full clearance from the test chamber ([2]; listed as pure segesterone acetate): 35 to 40 days
segesterone acetate detection in serum at terminal 6-month timepoint [3]: still detected
Compound: C=C1C[C@H]2[C@@H]3CCC4=CC(=O)CC[C@@H]4[C@H]3CC[C@]2(C)[C@@]1(OC(C)=O)C(C)=O [segesterone acetate]
binding to the androgen receptor (androgen receptor): does not significantly bind
binding to the estrogen receptor (estrogen receptor): does not significantly bind
